In ChEMBL document CHEMBL4725244, “Immunomodulation-mediated anticancer activity of a novel compound from Brugmansia suaveolens leaves” (Bioorg Med Chem, 2020):
The source made the active and inactive calls. The calls are words filed in the database; no cut-off is given here.

Assays:
[1] = (§1) Immunomodulation-mediated anticancer activity against human MCF7 cells assessed as human PBMC-mediated cell cycle arrest by measuring proportion of cells at G2M phase at 10 uM pretreated with effector PBMC cells for 48 hrs followed by co-culturing of target cancer cells with PBMC at ratio of 1:10 for 24 hrs by propidium iodide staining based flow cytometry (reference value: 10.5%); format: functional
A549 = test: (§2) Immunomodulation-mediated anticancer activity against human A549 cells assessed as human PBMC-mediated inhibition of cancer cell viability at 10 uM pretreated with effector PBMC cells for 48 hrs followed by co-culturing of target cancer cells with PBMC at ratio of 1:10 and measured after 24 hrs by ELISA (reference value: 5%); format: functional
[2] = Immuno-modulation activity in human PBMC assessed as increase in cell proliferation at 10 uM after 48 hrs by MTT assay relative to control; format: functional
[3] = as §1, with “S” for “G2M”, “19.6%)” for “10.5%)”; format: functional
[4] = (§3) Immunomodulation-mediated anticancer activity against human MCF7 cells assessed as human PBMC-mediated increase in ROS generation at 10 uM pretreated with effector PBMC cells for 48 hrs followed by co-culturing of target cancer cells with PBMC at ratio of 1:10 for 6 hrs by DCFH-DA staining based fluorometric analysis (reference value: 7%); format: functional
[5] = as §2, with “MCF7” for “A549”, “MTT assay” for “ELISA”; format: functional
PBMC = test: Immuno-modulation activity in human PBMC assessed as increase in cell proliferation at 20 uM after 48 hrs by MTT assay; format: functional, tissue-based
[6] = as §1, with “measuring increase in” for “measuring”, “subG1” for “G2M”, “relative to control” for “(reference value: 10.5%)”; format: functional
[7] = as §1, with “subbG1” for “G2M”, “4.8%)” for “10.5%)”; format: functional
[8] = Immuno-modulation activity in human PBMC assessed as increase in IFNgamma secretion at 10 uM after 48 hrs by ELISA relative to control; format: functional
[9] = as §3, with “decrease” for “increase”, “mitochondrial membrane potential” for “ROS generation”, “6” for “48”, “24” for “6”, “rhodamine 123” for “DCFH-DA”, “5%)” for “7%)”; format: functional
[10] = as §1, with “G0G1” for “G2M”, “64.6%)” for “10.5%)”; format: functional
[11] = Cytotoxicity against human MCF7 cells assessed as reduction in cell viability at 5 to 20 uM measured after 24 hrs by MTT assay relative to control; format: cell-based; settings: dose 5-20 µM, read-out: INH
[12] = as §2, with “MCF7” for “A549”, “1:2.5 to 1:20” for “1:10”, “MTT assay” for “ELISA (reference value: 5%)”; format: functional
[13] = Immuno-modulation activity in human PBMC assessed as increase in IL-2 secretion at 10 uM after 48 hrs by ELISA relative to control; format: functional

Which Activity [1] does the source give for COc1ccc(OC)c2c1OC(=O)CC[C@H](O)C2=O here?
The Activity was 59%.

And the inhibition at 10 µM (A549)?
Its inhibition at 10 µM is 32%.

And the Activity [2]?
The Activity was 92%.

And the Activity [3]?
Its Activity is 13.2%.

And the Activity [4]?
Its Activity is 79%.

And the inhibition at 10 µM [5]?
Its inhibition at 10 µM is 67%.

And the Activity (PBMC)?
Its Activity is “Active”.

What about the “fold change (FC)” value [6] of the same compound?
The value was 5.

And the Activity [7]?
The Activity was 28.4%.

And the “fold change (FC)” value [8]?
The value was 3.

And the inhibition at 10 µM [9]?
The inhibition at 10 µM was 66%.

And the Activity [10]?
The Activity was 51.8%.

And the cytotoxicity at 24 h, up to 20 µM [11]?
The cytotoxicity at 24 h, up to 20 µM was less than 30%.

What about the Activity [12] of the same compound?
The Activity was “<=70%”.

What about the “fold change (FC)” value [13] of the same compound?
The value was 3.
